A melting point compilation (Tetko et al.; mined from patent text by program, amines drawn as free bases though some values may be those of a salt)

Structure (SMILES) | melting point
CCC(=O)NC[C@@H]1C[C@H]1c1c(F)ccc2nn(C)cc12 (relative stereo) | 158 to 159 °C
Cn1c(=O)oc2c(O)cccc21 | 209 to 211 °C
CN1CC=C(c2ccccc2Cc2ccccc2)CC1 | 55 to 57 °C
CCN(CC)c1ccc(C(O)C#Cc2ccc(C(=O)O)cc2)cc1C(C)C (stereo not drawn) | 145 °C
Nc1nc2c(Cl)ncnc2n1C1OC(CO)C(O)C1O (stereo not drawn) | 214 to 217 °C
COC(=O)c1ccc(CN(C(CO)CO)S(=O)(=O)c2ccc(Cl)s2)cc1 | 134 to 135 °C
O=c1[nH]c2ccccc2c(=O)n1CCN1CCC(C(O)c2ccc(F)cc2)CC1 (stereo not drawn) | 213 °C
CCC(O)C1C(N2CCN(C)CC2)=Nc2ccccc2N=C1N1CCN(C)CC1 (stereo not drawn) | 163 to 166 °C
OCCSP(=S)(C1CCCCC1)C1CCCCC1 | 82 to 84 °C
CCCOc1ccc(N)cc1C1=NC(=O)C2=NN=NC2=N1 | 225 to 227 °C
OCCOC(c1ccccc1)(c1ccccc1)c1ccccc1 | 103 to 106 °C
CCc1nnc(-c2ccc(NC)cc2)n1-c1ccc(OC)cc1 | 198 °C
CC(C)(C)OC(=O)C(C#N)C(=O)c1cc(F)c(F)c(F)c1F (stereo not drawn) | 90 to 92 °C
COc1ccc(-c2cc(OCC3CO3)c3ccccc3n2)cc1 (racemic) | 100 to 106 °C
COCn1nnc(NC(=O)C(c2ccccc2)c2ccccc2)n1 | 127 to 128 °C
CCCCc1nc2c(C(F)(F)F)cccc2c(O)c1C(=O)O | 140 to 141 °C
O=C(CCl)CC(=O)Nc1ccccc1 | 142 to 143 °C
Cc1nc(C)c(Cl)c(NCCCSc2ccnc(CNc3nc(C)nc(C)c3Cl)c2C)n1 | 170 to 174 °C
COc1ccc(S(=O)(=O)Nc2cc(NC(=O)c3ccc(Cl)c(Cl)c3)ccc2OC)cc1 | 225 to 227 °C
Cc1ccc(NC(=O)N=C2CCCN2C)cc1 | 136 to 137 °C

Structure (SMILES) | melting point
COc1cc(CO)c(-c2cc3c(cc2CO)OCO3)c(OC)c1OC | 123 to 124 °C
CN(C)C(=O)Nc1cccc(S(N)(=O)=O)c1 | 193 to 194 °C
O=P(O)(O)CN(CP(=O)(O)O)c1ccccc1 | 130 to 131 °C
OCCCCC(F)(F)C(F)(F)CCO | 52 to 55 °C
N#Cc1ccc(NC(=O)c2cc3cccc(S(=O)(=O)c4ccccc4)c3[nH]2)c(-c2nnn[nH]2)c1 | 293 to 295 °C
COC(=O)[C@@H](N)Cc1cc(I)c(Oc2ccc(O)cc2)c(I)c1 | 173 °C
Nc1cccc(-c2cccc(CC3CCCC3NCCc3ccccc3)c2)n1 (stereo not drawn) | 110 to 130 °C
C=C(c1ccc(OC)c(OC2CCCC2)c1)c1n[nH]cc1CO | 121 to 123 °C
O=C(Nc1cc(-c2ccccc2)on1)Nc1cccc2c1C1CCCCN1C2=O (stereo not drawn) | 248 °C
O=c1[nH]c(Cc2cccc(O)c2)cc2ccccc12 | 225 to 227 °C
NC(=NC(=O)c1nc(Cl)c(N)nc1N)NCCCCc1ccc(OCC(=O)N(CCO)CCO)cc1 | 114 to 116 °C
O=c1ccc2cc(-c3ccccc3)ccc2n1O | 219 to 220 °C
N#Cc1ccc(-c2sc(N3C(=O)c4ccccc4C3=O)c(C(=O)c3ccc(Cl)cc3)c2CBr)cc1 | 211 to 214 °C
O=P(Cc1ccc2ccccc2c1-c1c(CP(=O)(c2cccc(F)c2)c2cccc(F)c2)ccc2ccccc12)(c1cccc(F)c1)c1cccc(F)c1 | 280 to 284 °C
Cc1noc(-c2ncn3c2[C@@H]2CCN2C(=O)c2c(Cl)cccc2-3)n1 | 239 to 240 °C
O=C1Oc2ccccc2NC1Cl (stereo not drawn) | 133 to 136 °C
COc1ncnc(-c2cc([N+](=O)[O-])c(C#N)cc2F)c1Cl | 161 to 162 °C
CCOC(=O)c1cnc(Nc2cc(OC)ccc2OC)[nH]c1=O | 221 to 223 °C
CNC(=S)Nc1cc(C(=O)OC)c(O)c2ncc(Cc3ccc(F)cc3)cc12 | 189 to 191 °C
Cc1ccnc(C(=O)c2[nH]c3cc(Cl)ccc3c2NC(=O)CN(C)C)c1 | 193 to 194 °C

Structure (SMILES) | melting point
CCN1C(=O)CCCc2ccc(Nc3ncc(Cl)c(Nc4c(F)cccc4C(=O)NC)n3)cc21 | 228 to 235 °C
NC(=O)C1C(=O)NC(=O)C(C(N)=O)C12CCCCC2 (stereo not drawn) | > 300 °C
CN1CCCCC1CCc1ccccc1NC(=O)c1ccc(Br)cc1 (stereo not drawn) | 138 °C
CCCC(CC)Nc1cc(C(=O)O)ccc1N1C(=O)CCC1(CO)CO (stereo not drawn) | 232 to 233 °C
CCC(C)(C)c1ccc(OCC(=O)O)c(C(C)(C)C)c1 | 140 to 144 °C
O=C1c2ccccc2C(=O)N1CCCCOc1ccc([N+](=O)[O-])cc1 | 112 to 114 °C
O=C(O)C(Cc1ccccc1)Oc1c(Br)cc(-c2ccc(-c3c(Cc4ccccc4)sc4ccccc34)cc2)cc1Br (stereo not drawn) | 87 to 89 °C
O=C(CCC(=O)c1ccccc1)NC1CNCCO1 (stereo not drawn) | 87 to 89 °C
CCCCNC(=O)Oc1ccc(N=C=S)cc1 | 99 to 102 °C
Fc1c(F)c(C(F)(F)F)c(F)c(F)c1Nc1ccc(-c2ccc(Nc3c(F)c(F)c(C(F)(F)F)c(F)c3F)cc2)cc1 | 179 to 180 °C
CC1=CC(=NO)CC(c2cccc(Cl)c2)N1 (stereo not drawn) | 88 °C
COc1ccc(CNc2nc(-c3ccco3)c3ncn(Cc4ccc(OC)cc4)c3n2)cc1 | 153 to 154 °C
CNC(=O)ON=C1n2ccnc2S(=O)C1(C)C (stereo not drawn) | 148 to 149 °C
C=Cc1ccc2c(n1)COC(c1ccccc1)O2 (stereo not drawn) | 54 to 57 °C
CC(CS)C(=O)N1C(C(=O)O)CC2CCCCC21 (stereo not drawn) | 141 to 142 °C
CCOC(=O)c1cc(OCN2C(=O)c3c(C(C)C)cc(OC)cc3S2(=O)=O)n(-c2ccccc2)n1 | 170 to 171 °C
CNC(=O)N1CC(C)(C)N(C)C(C)(C)CC1=O | 111 to 113 °C
C=C1C[C@@H]2[C@H](CC[C@]3(C)C(=O)CC[C@@H]23)[C@@]2(C)CCC(=O)C(SCC)=C12 | 140 to 145 °C

Continued, values first:

melting point | Structure (SMILES)
124 to 125 °C | CCCN1C(=O)N2C[C@@H](Cc3ccccc3)N=C2c2c1nc(N1CCCC1)n2Cc1ccccc1
162 to 163 °C | Cn1cc(Cl)cc(Br)c1=O
70 to 71 °C | CN(C)CCCn1c2c(c3ccccc31)CCSCCC2
122 to 123 °C | CC[C@@H]1C(=O)N(Cc2ccc(OC)cc2OC)[C@H]1C(=O)O (relative stereo)
100 to 102 °C | CCCc1c(OCCCCCOc2ccc3cc(OCC(=O)OCC)ccc3c2CCC(=O)OCC)ccc2c1OCCC2=O
149 to 151 °C | CCCCOc1cc2cc(C(=O)OC)c(C(=O)OC)c(-c3ccncc3)c2cc1OC
126 to 127 °C | O=C1OC(=O)c2nc(C(Cl)(Cl)Cl)ccc21
98.7 to 100 °C | CCCCCCCOc1ccc(-c2ccc(OCc3ccccc3)c(F)c2)cc1F
66 to 68 °C | Cn1nc([N+](=O)[O-])cc1CO
176 to 178 °C | CCn1c(=O)nc(-c2ccccc2)c2cc(Cl)ccc21
185 °C | CC(C)N(C(=S)Nc1ccc(NC(=S)N(C(C)C)C(C)C)cc1)C(C)C
58.5 to 59.5 °C | CCOC(=O)c1c(OC)cc(C(F)(F)F)nc1C(F)(F)F
118 to 120 °C | OC1(c2ccc(F)c(F)c2)CCC2(CC1)OCCO2
135 to 137 °C | CS(=O)(=O)c1ccccc1C(=O)Cl
189 to 190 °C | COc1ccc(-c2cc(-c3ccoc3)c(C(=O)NCc3ccc(C(=O)NO)cc3)[nH]2)cc1
89 to 90 °C | CN(C)C=CC(=O)c1ccsc1
89 to 90 °C | CCCCCc1nc(C(=O)OCC)c(C)[nH]1
225 to 233 °C | O=C(Nc1ccccc1)NC(Cc1ccccc1)C(=O)Nc1c(F)cc(F)cc1F (stereo not drawn)
253 to 255 °C | O=C(O)c1cccc2c1sc1ccccc12
193 to 196 °C | COc1ccccc1-c1cn(C)cc(-c2cccc(C(F)(F)F)c2)c1=O
225 to 227 °C | COC(=O)C1=C(C)NC(C)=NC1c1ccccc1Cl (stereo not drawn)
61 to 62 °C | Cc1ccc(C)c(SCCCCCC(=O)O)c1
106 °C | CCOC(=O)C(=CNc1scc(C)c1C(=O)OC)C(=O)OCC

melting point | Structure (SMILES)
148 to 150 °C | COC(=O)COc1ccc(NC(=O)CO)cc1
112 to 113 °C | N#CSCCNc1ccccc1[N+](=O)[O-]
185 to 187 °C | CCOP(=O)(CC(=O)Nc1cc2c(Nc3ccc(F)c(Cl)c3)ncnc2cc1OCC1CC1)OCC
303 to 306 °C | O=c1[nH]c2cc(Cl)ccc2c(O)c1-c1cccc(Oc2ccccc2)c1
276 °C | O=C(O)c1cc2sc3sccc3c2s1
74 to 76 °C | CC(C)(C)C(=O)C(=Cc1cccnc1)Oc1ccc(Cl)cc1
88 °C | COc1ccc(C2CCCN(C(=O)C(F)(F)F)C2)cc1 (stereo not drawn)
37 to 42 °C | CC(=O)c1ccnc(N(C)C)c1
284 to 285 °C | CNC(=O)c1cc2c(nc(C)n2C)c(O)c1CCC(=O)c1ccccc1
153 to 154 °C | COc1cc2c(cc1OC)CN(CC(O)CC1(c3noc4cc(F)ccc34)CCNCC1)CC2 (stereo not drawn)
124 to 126 °C | CNc1nc(-c2cccc(NC(=O)c3cccc(Cl)c3)c2)c2cc(OC)c(OC)cc2n1
68 to 69 °C | Fc1ccc(C#CCCC#Cc2ccccn2)cc1
307 °C | O=C(c1ccc(O)cc1)c1ccc2cc(C(=O)c3ccc(O)cc3)ccc2c1
141 to 142 °C | CC(C)c1nn(-c2ccc(C(F)(F)F)cn2)cc1COc1cc(CCC(=O)O)n(C)n1
128 to 130 °C | COc1ccc(-c2nc(SCCCSc3nc(-c4ccc(OC)cc4)c(-c4ccc(OC)cc4)[nH]3)[nH]c2-c2ccc(OC)cc2)cc1
155 to 157 °C | CC(C)c1ccccc1N=C1N=CC(C)(C)CS1
112 to 113 °C | CN(C(=O)c1ccccc1-c1ccc(F)cc1)C1N(C)C(c2ccc(F)cc2)=NC1(C(F)(F)F)C(F)(F)F (stereo not drawn)
126 to 127 °C | CO[C@]1(c2cnc(S)s2)CCO[C@@H]1C (racemic)
149 °C | FCC=Cc1ncn(C(c2ccccc2)(c2ccccc2)c2ccccc2)n1
209 to 210 °C | CCCCc1ccc(C(=O)O)cc1C12CC3CC(CC(C3)C1)C2
136 to 138 °C | N#CCC(O)(c1ccccc1)c1ccccc1
80 to 82.5 °C | CSC(=C[N+](=O)[O-])NCCSCc1ncccc1Cl
